From patent US20170321163A1, “ENZYME STABILIZERS” (Henkel AG & Co. KGaA, priority 2014, published 2017)

Test system: protease
Assay: Storage stability of protease in detergent formulation, residual proteolytic activity by AAPF-pNA assay
Assay type: biochemical
Conditions: 1% candidate compound, 1% protease in detergent formulation; stored 8 weeks at 30° C.; AAPF-pNA substrate, 25° C., pH 8.6, 410 nm
Protocol: The storage stability of protease-containing detergents and cleaning agents was tested for use as enzyme stabilizers in the presence of candidate compounds. For this purpose, the candidate compounds were formulated in the presence of up to 1% (w/w) 1,2-propanediol in a detergent or cleaning agent formulation (see Table 2). The protease (1% PUR) was then added to the formulation, and the formulation stored for 8 weeks at 30° C.
In parallel batches, the proteolytic activity of 1% protease was determined in 4% PG (1,2-propanediol), 85% matrix (see Table 1), then, each following incubation with 1% of the candidate compound (specified in w/w; QS 100% with water) determined in half of the batches in the formulation as indicated in Table 1 by the release of the chromophore para-nitroaniline from the succinyl-alanine-alanine-proline-phenylalanine para-nitroanilide substrate (AAPF-pNA; Bachem L-1400). The release of the pNA caused an increase in the absorbance at 410 nm, the progress over time of which is a measure of enzymatic activity. […]
For evaluation, the initial values for the proteolytic activity of the agent in question were compared to the values determined after storage. […] The stabilizing effect of each tested compound is thus measured as a relative percentage increase in the residual protease activity.

## CC(=O)[O-].CCn1cc[n+](C)c1 [1-ethyl-3-methylimidazolium acetate]
  Relative residual activity after incubation with KV: 122%
